Measured values from US10246487B2, “Azaindoline compounds as granzyme B inhibitors” (viDA Therapeutics Inc., priority 2014, dated 2019).

Legend:
GzmB [1] = molecular target: T1, GzmB (Homo sapiens, UniProt P10144); assay: Inhibition of fibronectin cleavage by GzmB; type: biochemical; settings: 20 nM granzyme B; for inhibition at 0.62 µM: 0.62 uM inhibitor, read-out: Percent Inhibition at Inhibitor Concentration 0.62 uM; for inhibition at 5.56 µM: 5.56 uM inhibitor, read-out: Percent Inhibition at Inhibitor Concentration 5.56 uM; for inhibition at 50 µM: 50 uM inhibitor, read-out: Percent Inhibition at Inhibitor Concentration 50 uM
Protocol: Black, 96 well high-binding assay plates (Griener Bio-one) were treated overnight at 4° C. with 40 uL of 8 ug/mL Hilyte Fluor 488 labeled Fibronectin (Cytoskeleton, Inc). After fibronectin coating, plates were washed 3 times in buffer (20 mM Tris-HCl, pH 7.4, 20 mM NaCl) then once with granzyme B assay buffer (50 mM HEPES, pH 7.5, 0.1% CHAPS). After washing, 50 μL of granzyme B assay buffer was added to each fibronectin-coated well. In a separate non-binding 96 well assay plate 5 μL of 20× inhibitor serial dilution stocks were added to 45 μL of 2.22× GzmB mix to establish inhibition (enzyme/inhibitor mixes were all prepared in granzyme B assay buffer and were incubated first at room temperature for 20 minutes, then at 30° C. for another 10 minutes). After incubation, 50 μL of this 2× enzyme/inhibitor mix was added to the corresponding coated well to initiate fibronectin cleavage (20 nM final granzyme B concentration, 8-point inhibitor dilution series starting at 50 uM). The assay was conducted at 30° C. in the TECAN plate reader (TECAN INFINITE® M1000 Pro), which was programmed to monitor the kinetic fluorescence polarization signal (filter set Ex/Em 470 nm/527 nm) with readings taken every minute, for 1 hour. Proteolytic activity was evaluated as the rate of fluorescence enhancement in the parallel emission over the linear range of the reaction. % Inhibition values were calculated from assay controls and the resulting date is shown in Table 7.

GzmB [2] = molecular target: T1, GzmB; assay: Inhibition of cell detachment by GzmB assay (HDFa fibroblasts, MTS); type: cell-based; settings: 50 uM inhibitor, 100 nM GzmB, HDFa primary human fibroblasts, 7 hours; read-out: Percent Inhibition of cell detachment at 50uM
Protocol: HDFa primary human fibroblasts were plated at 10 k/well in 200 ul, approximately 20 hrs before treatment. The next day, controls and 100 nM GzmB (recombinant, human) plus or minus inhibitor treatments were prepared in serum-free media. GzmB and inhibitor were incubated for 20 minutes at RT before adding to cells. Before addition, media and serum was removed from the cells and the cells were washed with PBS (1×), using pipettes to prevent disturbing the cells. Treatment preparations (100 ul) were added to the wells and incubated for 7 hours in a tissue culture incubator. After 7 hours, media and treatments were removed and the cells were washed with PBS (1×) to removed detached cells, using pipettes only. Phase pictures were taken then the PBS was removed and replaced with 100 uL of serum-free media and 20 uL of MTS and the cells were allowed to incubate for 3 hours in a cell culture incubator. After 3 hours the absorbance was read at 490 nm and a percent inhibition value for the treatments with inhibitors was determined from the control wells.

T1 sequence (P10144 21-247): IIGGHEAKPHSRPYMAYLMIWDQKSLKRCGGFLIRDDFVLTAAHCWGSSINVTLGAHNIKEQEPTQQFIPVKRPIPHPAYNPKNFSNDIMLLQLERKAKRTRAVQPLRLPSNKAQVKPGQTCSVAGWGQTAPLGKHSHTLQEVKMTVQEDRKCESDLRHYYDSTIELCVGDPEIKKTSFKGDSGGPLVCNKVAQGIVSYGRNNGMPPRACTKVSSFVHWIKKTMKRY

| inhibition at 0.62 µM (GzmB [1]) | inhibition at 5.56 µM (GzmB [1]) | inhibition at 50 µM (GzmB [1]) | inhibition at 50 µM (GzmB [2]) | SMILES |
| --- | --- | --- | --- | --- |
| 45% | 79% | 98% | 100% | CC[C@H](C)[C@H](NC(=O)CCC(=O)O)C(=O)N[C@@H](CCC(=O)O)C(=O)N1c2ncccc2C[C@H]1C(=O)NCc1nn[nH]n1 [Example C4, (S)-5-((S)-2(((2H-tetrazol-5-yl)methyl)carbamoyl)-2,3-dihydro-1H-pyrrolo[2,3-B]pyridin-1-yl)-4-((2S,3S)-2-(3-carboxypropanamido)-3-methylpentanamido)-5-oxopentanoic acid] |
| 56% | 77% | 94% |  | CC(C)[C@H](NC(=O)CCC(=O)O)C(=O)N[C@@H](CCC(=O)O)C(=O)N1c2ncccc2C[C@H]1C(=O)NCc1nn[nH]n1 [Example C17, (S)-5-((S)-2-(((2H-tetrazol-5-yl)methyl)carbamoyl)-2,3-dihydro-1H-pyrrolo[2,3-B]pyridin-1-yl)-4-((S)-2-(3-carboxypropanamido)-3-methylbutanamido)-5-oxopentanoic acid] |
| 66% | 82% | 88% |  | CC[C@H](C)[C@H](NC(=O)Cc1nn[nH]n1)C(=O)NCC(=O)N1c2ncccc2C[C@H]1C(=O)NCc1nn[nH]n1 [Example A1, (S)-1-(2-((2S,3S)-2-(2-(2H-tetrazol-5-yl)acetamido)-3-methylpentanamido)acetyl)-N-((2H-tetrazol-5-yl)methyl)-2,3-dihydro-1H-pyrrolo[2,3-B]pyridine-2-carboxamide] |
| 58% | 81% | 91% |  | CC[C@H](C)[C@H](NC(=O)Cc1ccccc1)C(=O)N[C@@H](CCC(=O)O)C(=O)N1c2ncccc2C[C@H]1C(=O)NCc1nn[nH]n1 [Example C9, (S)-5-((S)-2-(((2H-tetrazol-5-yl)methyl)carbamoyl)-2,3-dihydro-1H-pyrrolo[2,3-B]pyridin-1-yl)-4-((2S,3S)-3-methyl-2-(2-phenylacetamido)pentanamido)-5-oxopentanoic acid] |
